Measurements as given in ChEMBL document CHEMBL1138844, “Synthesis and biological evaluation of 1-aryl-4,5-dihydro-1H-pyrazolo[3,4-d]pyrimidin-4-one inhibitors of cyclin-dependent kinases” (J Med Chem, 2004).
pIC50: −log10 of the molar value.

Columns and labels:
[1] = Partition coefficient (logP); format: physicochemical; settings: octanol/water
[2] = molecular target: Cyclin-dependent kinase 2/cyclin E (Homo sapiens, UniProt P24941)
Description: Inhibition of Cyclin-dependent kinase 2-cyclin E

[3] = molecular target: Cyclin-dependent kinase 1/cyclin B (Homo sapiens, UniProt P06493); assay: Inhibition of Cyclin-dependent kinase 1-cyclin B; format: protein-complex assay
HCT-116 [4] = assay: Inhibition of human colon carcinoma cell (HCT116) proliferation; format: functional, cell-based
[5] = molecular target: T1, Cyclin-dependent kinase 4/cyclin D1 (Homo sapiens, UniProt P11802); assay: Inhibition of Cyclin-dependent kinase 4-cyclin D1; format: protein-complex assay
[6] = molecular target: T1, Cyclin-dependent kinase 4/cyclin D1; assay: Inhibition of Cyclin-dependent kinase 4/cyclin D1; format: protein-complex assay
HCT-116 [7] = assay: Concentration required for growth inhibition of human colon carcinoma cell line HCT116; format: functional, cell-based
AG1523 = assay: Concentration required for growth inhibition of human fibroblast cell line Ag 1523; format: functional, cell-based
[8] = molecular target: Tyrosine-protein kinase ABL1 (Homo sapiens, UniProt P00519)
Description: Inhibition of c-Abl tyrosine kinase activity

[9] = Inhibition of Protein Kinase A activity
[10] = Inhibitory concentration against NCI H460 cell line was determined; format: functional, cell-based, Homo sapiens
DU-145 = assay: Inhibitory concentration against human prostate cell line DU145 was determined; format: functional, cell-based
HCT-116 [11] = assay: Inhibitory concentration against human colon cell line HCT116 was determined; format: functional, cell-based
A498 = assay: Inhibitory concentration against human kidney cell line A498 was determined; format: functional, cell-based
COLO 205 = assay: Inhibitory concentration against human colon cell line COLO 205 was determined; format: functional, cell-based
T47D = assay: Inhibitory concentration against human breast cell line T47D was determined; format: functional, cell-based
MCF7 = assay: Inhibitory concentration against human breast cell line MCF-7 was determined; format: functional, cell-based
[12] = Inhibitory concentration against human breast cell line MDA MB468 was determined; format: functional, cell-based; settings: mda-mb-468

T1 sequence (P11802 whole entry): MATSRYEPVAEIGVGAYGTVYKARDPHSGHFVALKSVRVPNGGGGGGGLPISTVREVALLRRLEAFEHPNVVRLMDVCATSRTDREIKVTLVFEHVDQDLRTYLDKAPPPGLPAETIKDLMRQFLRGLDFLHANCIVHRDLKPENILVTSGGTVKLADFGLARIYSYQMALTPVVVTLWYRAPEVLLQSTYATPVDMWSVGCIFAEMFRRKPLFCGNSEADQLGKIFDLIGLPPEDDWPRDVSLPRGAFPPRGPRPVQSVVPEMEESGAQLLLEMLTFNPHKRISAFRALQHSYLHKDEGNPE
T1 sequence (P24385 whole entry, further chain): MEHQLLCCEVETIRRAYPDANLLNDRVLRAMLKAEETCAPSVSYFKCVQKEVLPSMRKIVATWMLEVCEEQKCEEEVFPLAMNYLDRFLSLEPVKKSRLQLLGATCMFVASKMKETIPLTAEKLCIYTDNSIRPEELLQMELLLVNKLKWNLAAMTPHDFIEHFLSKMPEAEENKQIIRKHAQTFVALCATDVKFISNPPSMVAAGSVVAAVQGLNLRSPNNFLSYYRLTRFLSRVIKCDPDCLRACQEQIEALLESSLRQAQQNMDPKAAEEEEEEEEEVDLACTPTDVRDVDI
Tyrosine-protein kinase ABL1, sequence (P00519 whole entry): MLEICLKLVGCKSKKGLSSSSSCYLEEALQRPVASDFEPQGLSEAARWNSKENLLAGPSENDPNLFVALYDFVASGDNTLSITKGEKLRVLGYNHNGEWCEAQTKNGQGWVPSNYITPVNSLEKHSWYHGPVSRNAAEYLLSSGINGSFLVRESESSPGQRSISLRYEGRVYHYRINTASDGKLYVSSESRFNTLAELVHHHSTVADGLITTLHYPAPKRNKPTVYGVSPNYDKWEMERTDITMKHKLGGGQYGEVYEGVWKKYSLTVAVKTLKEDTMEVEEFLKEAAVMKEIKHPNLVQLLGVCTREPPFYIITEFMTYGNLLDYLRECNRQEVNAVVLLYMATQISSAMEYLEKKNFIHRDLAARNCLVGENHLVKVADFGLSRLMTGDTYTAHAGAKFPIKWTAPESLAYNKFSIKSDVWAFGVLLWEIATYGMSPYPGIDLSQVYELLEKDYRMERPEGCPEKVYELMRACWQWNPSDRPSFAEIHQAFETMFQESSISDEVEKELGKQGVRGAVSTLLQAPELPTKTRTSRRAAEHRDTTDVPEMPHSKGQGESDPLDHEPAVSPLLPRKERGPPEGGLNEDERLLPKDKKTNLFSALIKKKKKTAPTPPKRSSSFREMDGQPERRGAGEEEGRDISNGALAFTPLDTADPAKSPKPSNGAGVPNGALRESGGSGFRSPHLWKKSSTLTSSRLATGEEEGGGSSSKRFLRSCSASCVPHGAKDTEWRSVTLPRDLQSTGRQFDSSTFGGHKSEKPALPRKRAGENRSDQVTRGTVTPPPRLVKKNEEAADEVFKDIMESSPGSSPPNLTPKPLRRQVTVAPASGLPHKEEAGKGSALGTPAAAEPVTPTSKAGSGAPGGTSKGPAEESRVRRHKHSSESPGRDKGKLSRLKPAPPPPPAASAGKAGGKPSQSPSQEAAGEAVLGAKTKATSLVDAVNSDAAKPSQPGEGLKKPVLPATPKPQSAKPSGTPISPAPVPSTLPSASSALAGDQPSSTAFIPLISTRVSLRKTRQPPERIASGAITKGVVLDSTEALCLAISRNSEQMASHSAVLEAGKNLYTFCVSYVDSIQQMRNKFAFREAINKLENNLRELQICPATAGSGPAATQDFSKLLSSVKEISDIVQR

**Q.** Which results are given for `CCc1nn(-c2c(Cl)cc(Cl)cc2Cl)c2nc(Cc3ccc(NC(C)=O)cc3)[nH]c(=O)c12`?
**A.** logP [1]: 3.9; pIC50 [2]: 8.05; pIC50 [3]: 7.52; pIC50 (HCT-116 [4]): 7.70; pIC50 [5]: 5.89

**Q.** Which logP [1] does the source give for `CCc1nn(-c2c(Cl)cc(Cl)cc2Cl)c2nc(Cc3ccc(NC(=O)CN)cc3)nc(O)c12` here?
**A.** Its logP is 3.3.

**Q.** And the pIC50 [2]?
**A.** Its pIC50 is 8.00.

**Q.** And the pIC50 [3]?
**A.** The pIC50 was 7.15.

**Q.** And the pIC50 (HCT-116 [4])?
**A.** The pIC50 was 6.92.

**Q.** What about the pIC50 [5] of the same compound?
**A.** The pIC50 was 6.34.

**Q.** What does the source list for `CCc1nn(-c2c(Cl)cc(Cl)cc2Cl)c2nc(Cc3ccc(NC(=O)CNC(=O)OC(C)(C)C)cc3)[nH]c(=O)c12`?
**A.** logP [1]: 4.9; pIC50 [2]: 8.00; pIC50 [3]: 6.74; pIC50 (HCT-116 [4]): 6.80; pIC50 [5]: 5.77

**Q.** With `CCc1nn(-c2c(Cl)cc(Cl)cc2Cl)c2nc(Cc3cccc(C)c3)[nH]c(=O)c12` as the compound, how does the pIC50 [2] read?
**A.** Its pIC50 is 6.41.

**Q.** And the pIC50 [3]?
**A.** Its pIC50 is under 6.25.

**Q.** And the pIC50 (HCT-116 [4])?
**A.** Its pIC50 is 5.68.

**Q.** What about the pIC50 [5] of the same compound?
**A.** The pIC50 was under 5.66.

**Q.** With `CCc1nn(-c2c(Cl)cc(Cl)cc2Cl)c2nc(Cc3ccc(N(C)C)cc3)[nH]c(=O)c12` as the compound, how does the pIC50 [2] read?
**A.** Its pIC50 is 7.70.

**Q.** What about the pIC50 [3] of the same compound?
**A.** Its pIC50 is under 6.59.

**Q.** And the pIC50 (HCT-116 [4])?
**A.** The pIC50 was 6.47.

**Q.** What about the pIC50 [5] of the same compound?
**A.** The pIC50 was under 5.68.

**Q.** With `CSc1nn(-c2c(Cl)cc(Cl)cc2Cl)c2nc(C)[nH]c(=O)c12` as the compound, how does the pIC50 [6] read?
**A.** Its pIC50 is 5.68.

**Q.** And the pIC50 (HCT-116 [7])?
**A.** The pIC50 was 5.60.

**Q.** What about the pIC50 (AG1523) of the same compound?
**A.** Its pIC50 is 5.04.

**Q.** What about the pIC50 [8] of the same compound?
**A.** The pIC50 was 3.38.

**Q.** And the pIC50 [9]?
**A.** The pIC50 was under 3.30.

**Q.** And the pIC50 [2]?
**A.** Its pIC50 is 6.44.

**Q.** What about the pIC50 [3] of the same compound?
**A.** Its pIC50 is 5.21.

**Q.** What about the pIC50 [5] of the same compound?
**A.** Its pIC50 is 5.68.

**Q.** Which results are given for `CCc1nn(-c2c(Cl)cc(Cl)cc2Cl)c2nc(Cc3ccc(OC)c(C)c3)[nH]c(=O)c12`?
**A.** pIC50 [2]: 7.22; pIC50 [3]: 6.06; pIC50 (HCT-116 [4]): 5.68; pIC50 [5]: < 5.68

**Q.** Which results are given for `CN1CCC(c2c(O)cc(O)c3c(=O)cc(-c4ccccc4Cl)oc23)[C@@H](O)C1` (mixture of isomers)?
**A.** pIC50 (HCT-116 [7]): 6.31; pIC50 (AG1523): 5.17; pIC50 [9]: < 3.30

**Q.** For `CCc1nn(-c2c(Cl)cc(Cl)cc2Cl)c2nc(Cc3ccc(N)cc3)[nH]c(=O)c12`, which logP [1] is on record?
**A.** The logP was 3.8.

**Q.** What about the pIC50 [2] of the same compound?
**A.** Its pIC50 is 8.00.

**Q.** And the pIC50 [3]?
**A.** The pIC50 was 6.82.

**Q.** What about the pIC50 (HCT-116 [4]) of the same compound?
**A.** Its pIC50 is 6.38.

**Q.** And the pIC50 [5]?
**A.** The pIC50 was 5.57.

**Q.** With `CN[C@@H]1C[C@H]2O[C@@](C)([C@@H]1OC)n1c3ccccc3c3c4c(c5c6ccccc6n2c5c31)C(=O)NC4` [STAUROSPORINE] as the compound, how does the pIC50 (HCT-116 [7]) read?
**A.** The pIC50 was 8.22.

**Q.** With `CCc1nn(-c2c(Cl)cc(Cl)cc2Cl)c2nc(Cc3cccnc3)[nH]c(=O)c12` as the compound, how does the pIC50 [2] read?
**A.** Its pIC50 is 8.00.

**Q.** And the pIC50 [3]?
**A.** The pIC50 was 6.66.

**Q.** And the pIC50 (HCT-116 [4])?
**A.** The pIC50 was 6.52.

**Q.** What about the pIC50 [5] of the same compound?
**A.** Its pIC50 is 5.89.

**Q.** With `CCc1nn(-c2c(Cl)cc(Cl)cc2Cl)c2nc(Cc3ccc(OC)cc3)[nH]c(=O)c12` as the compound, how does the pIC50 [2] read?
**A.** The pIC50 was 8.00.

**Q.** And the pIC50 [3]?
**A.** Its pIC50 is 6.82.

**Q.** What about the pIC50 (HCT-116 [4]) of the same compound?
**A.** The pIC50 was 6.22.

**Q.** And the pIC50 [5]?
**A.** Its pIC50 is 5.66.

**Q.** With `CN(C)c1ccc(C(=C2C=CC(=[N+](C)C)C=C2)c2ccc(N(C)C)cc2)cc1.CN(C)c1ccc(C(=C2C=CC(=[N+](C)C)C=C2)c2ccc(N(C)C)cc2)cc1.CN=C1C=CC(=C(c2ccc(N(C)C)cc2)c2ccc(N(C)C)cc2)C=C1` as the compound, how does the pIC50 [10] read?
**A.** Its pIC50 is 7.80.

**Q.** What about the logP [1] of the same compound?
**A.** The logP was 4.2.

**Q.** And the pIC50 (DU-145)?
**A.** Its pIC50 is 7.82.

**Q.** What about the pIC50 (HCT-116 [11]) of the same compound?
**A.** Its pIC50 is 7.47.

**Q.** What about the pIC50 (A498) of the same compound?
**A.** Its pIC50 is 7.24.

**Q.** And the pIC50 (COLO 205)?
**A.** The pIC50 was 7.89.

**Q.** And the pIC50 [2]?
**A.** Its pIC50 is 8.00.

**Q.** What about the pIC50 (T47D) of the same compound?
**A.** Its pIC50 is 7.80.

**Q.** What about the pIC50 (MCF7) of the same compound?
**A.** The pIC50 was 7.85.

**Q.** And the pIC50 [3]?
**A.** The pIC50 was 7.00.

**Q.** What about the pIC50 (HCT-116 [4]) of the same compound?
**A.** Its pIC50 is 7.52.

**Q.** And the pIC50 [12]?
**A.** Its pIC50 is 7.92.

**Q.** What about the pIC50 [5] of the same compound?
**A.** Its pIC50 is 6.23.

**Q.** Which results are given for `CCc1nn(-c2c(Cl)cc(Cl)cc2Cl)c2nc(Cc3cccc(OC)c3)[nH]c(=O)c12`?
**A.** pIC50 [2]: 7.52; pIC50 [3]: 6.39; pIC50 (HCT-116 [4]): 5.77; pIC50 [5]: 5.30
